Test results: PubChem BioAssay (NCI)
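A five-concentration, 48-hour dose response in 96-well plates underlies each endpoint, interpolated linearly between surrounding concentrations. TGI: total growth inhibition.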

Assays:
Experiment in all cases: NCI tumour cell line growth inhibition, 48 h
BT-549 breast = system: BT-549 breast
MDA-N = system: MDA-N
NCI-H23 lung = system: NCI-H23 lung
KM12 colon = system: KM12 colon
NCI-H522 lung = system: NCI-H522 lung
T-47D breast = system: T-47D breast
U251 CNS = system: U251 CNS
UACC-257 melanoma = system: UACC-257 melanoma
MALME-3M melanoma = system: MALME-3M melanoma
NCI-H226 lung = system: NCI-H226 lung
OVCAR-8 ovarian = system: OVCAR-8 ovarian
SNB-75 CNS = system: SNB-75 CNS
ACHN renal = system: ACHN renal
MDA-MB-231 breast = system: MDA-MB-231 breast
MDA-MB-435 = system: MDA-MB-435
HCT-15 colon = system: HCT-15 colon
MCF7 breast = system: MCF7 breast
OVCAR-4 ovarian = system: OVCAR-4 ovarian
SK-MEL-28 melanoma = system: SK-MEL-28 melanoma
SK-MEL-5 melanoma = system: SK-MEL-5 melanoma
SNB-19 CNS = system: SNB-19 CNS
SR leukemia = system: SR leukemia
NCI-H460 lung = system: NCI-H460 lung
LOX IMVI melanoma = system: LOX IMVI melanoma
SF-268 CNS = system: SF-268 CNS
CCRF-CEM leukemia = system: CCRF-CEM leukemia
M14 melanoma = system: M14 melanoma
RXF 393 renal = system: RXF 393 renal
UACC-62 melanoma = system: UACC-62 melanoma
K-562 leukemia = system: K-562 leukemia
A549 NSCLC = system: A549 NSCLC
786-0 renal = system: 786-0 renal
TK-10 renal = system: TK-10 renal
DU-145 prostate = system: DU-145 prostate
IGROV1 ovarian = system: IGROV1 ovarian
SW-620 colon = system: SW-620 colon
COLO 205 colon = system: COLO 205 colon
SN12C renal = system: SN12C renal
OVCAR-5 ovarian = system: OVCAR-5 ovarian
HOP-92 NSCLC = system: HOP-92 NSCLC
SK-MEL-2 melanoma = system: SK-MEL-2 melanoma
UO-31 renal = system: UO-31 renal
MOLT-4 leukemia = system: MOLT-4 leukemia
RPMI-8226 leukemia = system: RPMI-8226 leukemia
OVCAR-3 ovarian = system: OVCAR-3 ovarian
HT29 colon = system: HT29 colon
HCC-2998 colon = system: HCC-2998 colon
HS 578T breast = system: HS 578T breast
HL-60(TB) leukemia = system: HL-60(TB) leukemia
SF-539 CNS = system: SF-539 CNS
HCT-116 colon = system: HCT-116 colon
EKVX NSCLC = system: EKVX NSCLC
A498 renal = system: A498 renal
NCI/ADR-RES ovarian = system: NCI/ADR-RES ovarian
CAKI-1 renal = system: CAKI-1 renal
SK-OV-3 ovarian = system: SK-OV-3 ovarian
SF-295 CNS = system: SF-295 CNS
HOP-62 NSCLC = system: HOP-62 NSCLC
PC-3 prostate = system: PC-3 prostate

For CN1CCN(C(=S)N(C(=O)c2cccs2)c2ccccc2)CC1, the TGI (BT-549 breast) was > 100 µM, the TGI (MDA-N) was > 100 µM and the TGI (NCI-H23 lung) was > 100 µM. For the same molecule, the TGI (KM12 colon) was > 100 µM, the TGI (NCI-H522 lung) was > 100 µM and the TGI (T-47D breast) was > 100 µM. For the same molecule, the TGI (U251 CNS) was > 100 µM, the TGI (UACC-257 melanoma) was > 100 µM and the TGI (MALME-3M melanoma) was > 100 µM. The TGI (NCI-H226 lung) was > 100 µM, the TGI (OVCAR-8 ovarian) was > 100 µM and the TGI (SNB-75 CNS) was > 100 µM. The TGI (ACHN renal) was > 100 µM, the TGI (MDA-MB-231 breast) was > 100 µM and the TGI (MDA-MB-435) was > 100 µM. The TGI (HCT-15 colon) was > 100 µM, the TGI (MCF7 breast) was > 100 µM and the TGI (OVCAR-4 ovarian) was > 100 µM. For the same molecule, the TGI (SK-MEL-28 melanoma) was > 100 µM, the TGI (SK-MEL-5 melanoma) was > 100 µM and the TGI (SNB-19 CNS) was > 100 µM. For the same molecule, the TGI (SR leukemia) was > 100 µM, the TGI (NCI-H460 lung) was > 100 µM and the TGI (LOX IMVI melanoma) was > 100 µM. The TGI (SF-268 CNS) was > 100 µM, the TGI (CCRF-CEM leukemia) was > 100 µM and the TGI (M14 melanoma) was > 100 µM. The TGI (RXF 393 renal) was > 100 µM, the TGI (UACC-62 melanoma) was > 100 µM and the TGI (K-562 leukemia) was > 100 µM. For the same molecule, the TGI (A549 NSCLC) was > 100 µM, the TGI (786-0 renal) was > 100 µM and the TGI (TK-10 renal) was > 100 µM. The TGI (DU-145 prostate) was > 100 µM, the TGI (IGROV1 ovarian) was > 100 µM and the TGI (SW-620 colon) was > 100 µM. For the same molecule, the TGI (COLO 205 colon) was > 100 µM, the TGI (SN12C renal) was > 100 µM and the TGI (OVCAR-5 ovarian) was > 100 µM. The TGI (HOP-92 NSCLC) was > 100 µM, the TGI (SK-MEL-2 melanoma) was > 100 µM and the TGI (UO-31 renal) was > 100 µM. The TGI (MOLT-4 leukemia) was > 100 µM, the TGI (RPMI-8226 leukemia) was > 100 µM and the TGI (OVCAR-3 ovarian) was > 100 µM. The TGI (HT29 colon) was > 100 µM, the TGI (HCC-2998 colon) was > 100 µM and the TGI (HS 578T breast) was > 100 µM. For the same molecule, the TGI (HL-60(TB) leukemia) was > 100 µM.

O=C(/C=C\c1ccc(-c2ccccc2)cc1)c1cccs1 was tested, and the TGI (BT-549 breast) was > 100 µM, the TGI (MDA-N) was > 100 µM and the TGI (NCI-H23 lung) was > 100 µM. The TGI (SF-539 CNS) was > 100 µM, the TGI (KM12 colon) was > 100 µM and the TGI (NCI-H522 lung) was > 30.4 µM. For the same molecule, the TGI (U251 CNS) was > 100 µM, the TGI (UACC-257 melanoma) was > 100 µM and the TGI (HCT-116 colon) was > 100 µM. For the same molecule, the TGI (NCI-H226 lung) was > 100 µM, the TGI (OVCAR-8 ovarian) was > 100 µM and the TGI (SNB-75 CNS) was > 60.4 µM. The TGI (EKVX NSCLC) was > 100 µM, the TGI (ACHN renal) was > 100 µM and the TGI (MDA-MB-231 breast) was > 100 µM. For the same molecule, the TGI (A498 renal) was > 27.1 µM, the TGI (NCI/ADR-RES ovarian) was > 100 µM and the TGI (MDA-MB-435) was > 100 µM. For the same molecule, the TGI (HCT-15 colon) was > 100 µM, the TGI (MCF7 breast) was > 100 µM and the TGI (OVCAR-4 ovarian) was > 100 µM. The TGI (SK-MEL-28 melanoma) was > 100 µM, the TGI (SK-MEL-5 melanoma) was > 100 µM and the TGI (SNB-19 CNS) was > 100 µM. For the same molecule, the TGI (SR leukemia) was > 100 µM, the TGI (CAKI-1 renal) was > 100 µM and the TGI (NCI-H460 lung) was > 100 µM. The TGI (LOX IMVI melanoma) was > 100 µM, the TGI (SF-268 CNS) was > 75 µM and the TGI (CCRF-CEM leukemia) was 12.5 µM. The TGI (M14 melanoma) was > 100 µM, the TGI (RXF 393 renal) was 46.4 µM and the TGI (UACC-62 melanoma) was > 100 µM. For the same molecule, the TGI (K-562 leukemia) was > 100 µM, the TGI (A549 NSCLC) was > 100 µM and the TGI (786-0 renal) was > 100 µM. For the same molecule, the TGI (TK-10 renal) was > 100 µM, the TGI (SK-OV-3 ovarian) was > 100 µM and the TGI (DU-145 prostate) was > 100 µM. The TGI (IGROV1 ovarian) was > 94.3 µM, the TGI (SW-620 colon) was > 100 µM and the TGI (COLO 205 colon) was > 100 µM. For the same molecule, the TGI (SN12C renal) was > 100 µM, the TGI (OVCAR-5 ovarian) was > 100 µM and the TGI (HOP-92 NSCLC) was > 100 µM. The TGI (SK-MEL-2 melanoma) was > 100 µM, the TGI (UO-31 renal) was > 100 µM and the TGI (MOLT-4 leukemia) was > 28.1 µM. The TGI (RPMI-8226 leukemia) was > 100 µM, the TGI (OVCAR-3 ovarian) was > 100 µM and the TGI (HT29 colon) was > 50.3 µM. For the same molecule, the TGI (HCC-2998 colon) was > 100 µM, the TGI (SF-295 CNS) was > 100 µM and the TGI (HOP-62 NSCLC) was > 100 µM. The TGI (PC-3 prostate) was > 100 µM, the TGI (HS 578T breast) was > 81 µM and the TGI (HL-60(TB) leukemia) was > 31 µM.

For Cc1nn(C(=O)Cc2ccccc2)c2c1C(c1ccc3ccccc3c1O)SC(N)=N2 (stereo not given), the TGI (BT-549 breast) was > 100 µM, the TGI (MDA-N) was > 100 µM and the TGI (NCI-H23 lung) was > 100 µM. For the same molecule, the TGI (SF-539 CNS) was > 100 µM, the TGI (KM12 colon) was > 100 µM and the TGI (NCI-H522 lung) was > 100 µM. The TGI (T-47D breast) was > 100 µM, the TGI (UACC-257 melanoma) was > 100 µM and the TGI (HCT-116 colon) was > 100 µM. For the same molecule, the TGI (NCI-H226 lung) was > 100 µM, the TGI (OVCAR-8 ovarian) was > 100 µM and the TGI (SNB-75 CNS) was > 100 µM. For the same molecule, the TGI (EKVX NSCLC) was > 100 µM, the TGI (ACHN renal) was > 100 µM and the TGI (MDA-MB-231 breast) was > 100 µM. The TGI (A498 renal) was > 100 µM, the TGI (MDA-MB-435) was > 100 µM and the TGI (HCT-15 colon) was > 100 µM. For the same molecule, the TGI (MCF7 breast) was > 100 µM, the TGI (SK-MEL-28 melanoma) was > 100 µM and the TGI (SK-MEL-5 melanoma) was > 100 µM. The TGI (SNB-19 CNS) was > 100 µM, the TGI (SR leukemia) was > 100 µM and the TGI (CAKI-1 renal) was > 100 µM. The TGI (NCI-H460 lung) was > 100 µM, the TGI (LOX IMVI melanoma) was > 100 µM and the TGI (SF-268 CNS) was > 100 µM. For the same molecule, the TGI (CCRF-CEM leukemia) was 64.2 µM, the TGI (M14 melanoma) was > 100 µM and the TGI (UACC-62 melanoma) was > 100 µM. The TGI (K-562 leukemia) was > 100 µM, the TGI (A549 NSCLC) was > 100 µM and the TGI (TK-10 renal) was > 100 µM. For the same molecule, the TGI (SK-OV-3 ovarian) was > 100 µM, the TGI (DU-145 prostate) was > 100 µM and the TGI (IGROV1 ovarian) was > 100 µM. For the same molecule, the TGI (SW-620 colon) was > 100 µM, the TGI (COLO 205 colon) was > 100 µM and the TGI (SN12C renal) was > 100 µM. The TGI (UO-31 renal) was > 100 µM, the TGI (MOLT-4 leukemia) was > 100 µM and the TGI (RPMI-8226 leukemia) was > 100 µM. For the same molecule, the TGI (HT29 colon) was > 100 µM, the TGI (HCC-2998 colon) was > 100 µM and the TGI (SF-295 CNS) was > 100 µM. For the same molecule, the TGI (HOP-62 NSCLC) was > 100 µM, the TGI (PC-3 prostate) was > 100 µM and the TGI (HS 578T breast) was > 100 µM. For the same molecule, the TGI (HL-60(TB) leukemia) was > 100 µM.
